Source: the supplement of paper PMC10307832

Columns and labels:
Test in all cases: relative viability (nuclei count vs DMSO), 5 days (fraction); higher = more cells survive
[1] = compound: CC1=NN=C(O1)C2=NN=C(C=C2)N3CCC(CC3)OC4=C(C=CC(=C4)F)Cl + N=C(N)NC(=N)NCCc1ccccc1 [Phenformin] (partner 250 µM)
Outline: (§1)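 Medians of duplicate plates are given as relative viability. That measure is the nuclei count in treated wells divided by the count in vehicle wells. Counts were taken on 4× images of lung cancer cell lines in 1536-well plates, 5 days after pin-tool dosing the day after seeding with one drug alone or a fixed anchor-drug dose plus five library-drug doses (not always all listed) in √10 steps.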

[2] = compound: CC1=NN=C(O1)C2=NN=C(C=C2)N3CCC(CC3)OC4=C(C=CC(=C4)F)Cl + Cc1nc(NC(=O)N2CCC[C@H]2C(N)=O)sc1-c1ccnc(C(C)(C)C(F)(F)F)c1 [Alpelisib] (partner 2 µM)
Outline: as §1

[3] = compound: CC1=NN=C(O1)C2=NN=C(C=C2)N3CCC(CC3)OC4=C(C=CC(=C4)F)Cl + CC(=O)c1c(C)c2cnc(Nc3ccc(N4CCNCC4)cn3)nc2n(C2CCCC2)c1=O [Palbociclib] (partner 0.5 µM)
Outline: as §1

[4] = compound: CC1=NN=C(O1)C2=NN=C(C=C2)N3CCC(CC3)OC4=C(C=CC(=C4)F)Cl + Cc1cc(Nc2cc(N3CCN(C)CC3)nc(Sc3ccc(NC(=O)C4CC4)cc3)n2)n[nH]1 [Tozasertib] (partner 0.1 µM)
Outline: as §1

| Cell Line | relative viability ([1]; first compound 0.253 µM) | relative viability ([1]; first compound 0.8 µM) | relative viability ([1]; first compound 2.53 µM) | relative viability ([1]; first compound 8 µM) | relative viability ([2]; first compound 0.253 µM) | relative viability ([2]; first compound 0.8 µM) | relative viability ([2]; first compound 2.53 µM) | relative viability ([2]; first compound 8 µM) | relative viability ([3]; first compound 0.253 µM) | relative viability ([3]; first compound 0.8 µM) | relative viability ([3]; first compound 2.53 µM) | relative viability ([3]; first compound 8 µM) | relative viability ([4]; first compound 0.253 µM) | relative viability ([4]; first compound 0.8 µM) | relative viability ([4]; first compound 2.53 µM) | relative viability ([4]; first compound 8 µM) |
| --- | --- | --- | --- | --- | --- | --- | --- | --- | --- | --- | --- | --- | --- | --- | --- | --- |
| NCI-H1944 | 0.183 | 0.187 | 0.196 | 0.183 | 0.565 | 0.629 | 0.691 | 0.648 | 0.238 | 0.278 | 0.249 | 0.246 | 0.22 | 0.216 | 0.213 | 0.229 |
| NCI-H1975 |  | 0.33 | 0.421 | 0.387 |  | 0.725 | 0.753 | 0.779 | 0.2 | 0.363 | 0.517 | 0.411 |  | 0.595 | 0.48 | 0.261 |
| NCI-H1993 | 0.553 | 0.481 | 0.651 | 0.509 | 0.616 | 0.619 | 0.65 | 0.702 | 0.523 | 0.579 | 0.644 | 0.603 | 0.558 | 0.603 | 0.635 | 0.571 |
| NCI-H2009 | 0.456 | 0.418 | 0.424 | 0.378 | 0.712 | 0.714 | 0.646 | 0.626 | 0.175 | 0.204 | 0.156 | 0.158 | 0.372 | 0.39 | 0.376 | 0.353 |
| NCI-H2023 | 0.401 | 0.362 | 0.387 | 0.324 | 0.499 | 0.444 | 0.43 | 0.361 | 0.28 | 0.277 | 0.233 | 0.199 | 0.301 | 0.216 | 0.205 | 0.147 |
| NCI-H2085 | 0.676 |  | 0.629 | 0.565 | 0.922 | 0.908 | 0.8 | 0.71 | 0.425 | 0.431 | 0.469 | 0.37 | 0.454 | 0.614 | 0.538 | 0.515 |
| NCI-H2087 | 0.425 | 0.267 | 0.387 | 0.341 | 0.762 | 0.674 | 0.615 | 0.615 | 0.239 | 0.262 | 0.21 | 0.195 | 0.194 | 0.157 | 0.156 | 0.114 |
| NCI-H2126 | 0.486 | 0.507 | 0.53 | 0.528 | 0.696 | 0.666 | 0.711 | 0.598 | 0.368 | 0.338 | 0.326 | 0.353 | 0.765 | 0.786 | 0.763 | 0.715 |
| NCI-H2170 | 0.336 | 0.291 | 0.355 | 0.323 | 0.646 | 0.593 | 0.626 | 0.574 | 0.196 | 0.22 | 0.22 | 0.175 | 0.306 | 0.416 | 0.392 | 0.331 |
| NCI-H2228 | 0.313 | 0.257 | 0.294 | 0.401 | 0.684 | 0.545 | 0.923 | 0.479 | 0.675 | 0.394 | 0.681 | 0.538 | 0.214 | 0.198 | 0.212 | 0.207 |
